{"source": "patent US4681764A", "about": "“Porous and spherical carbonaceous product” (Kureha Kagaku Kogyo Kabushiki Kaisha, priority 1979, dated 1987)", "origin": "cited, not measured here", "details": "in vivo", "data": [{"substance": "oxidized starch", "values": [{"measurement": "stimulation of the intestinal wall", "result": "side-reaction of stimulating the intestinal wall"}]}]}
